Measured values published in US20170029388A1, “Treatment of Neurodegenerative Diseases with Asparagine Endopeptidase (AEP) Inhibitors and Compositions Related Thereto” (INTERCONTINENTAL GREAT BRANDS LLC, priority 2014, published 2017).
Like-named read-outs stand apart in the source and are kept apart here.

Key:
[1] = system: cleavage of the amyloid precursor protein (APP); experiment: OGD in primary cortical neurons, APP cleavage (immunoblot); assay type: cell-based
Protocol: (§1) A. AEP activity, measured in primary neuronal cultures with 5 μM Cbz-Ala-Ala-Asn-AMC (x-axis denotes neurons were treated with 0.1 μM or 1.0 μM specified compound). B. Caspase activity, measured in primary neuronal cultures with 5 μM Ac-Asp-Glu-Val-Asp-AMC. C. Cathepsin activity, measured in primary neuronal cultures with 5 μM D-Val-Leu-Lys-AMC. D. Inhibition of APP cleavage. Lysates of primary cortical neurons pre-incubated with compounds for 30 min, underwent OGD for 4 hrs, were reperfused for 18 hrs (normoxia neurons remained at normoxic conditions). E. APP can be cleaved in a dose-dependent manner. Lysates of primary cortical neurons pre-incubated with compounds for 30 min, underwent OGD for 4 hrs, were reperfused for 18 hrs (normoxia neurons remained at normoxic conditions).
Depriving cells of oxygen and glucose is a cellular model that is employed to trigger acidosis in cultured cells. The efficacy of the compounds in a cellular model of oxygen-glucose deprivation (OGD) was determined in an effort to mimic the effects of stroke in primary cultured neurons. As a result of depriving neurons of oxygen and glucose-containing medium, AEP activity was doubled (FIG. 7A, ‘DMSO-Norm’ compared to ‘DMSO-OGD’), while Caspase-3 and Cathepsin activities remained relatively unchanged. […] Cleavage of APP is observed in response to only DMSO treatment (FIG. 7D, lane 2), and it appears that upon the treatment of 1 μM of compounds 10, 11, and 12, and just 0.1 μM of compounds 31, 38 and 64, the cleavage was blocked, presumably due to AEP inhibition.
Compounds were pre-incubated with primary culture neurons, DIV13, for 30 min. The medium was exchanged for glucose-free DMEM and neurons were de-gased and incubated at 37° C., 95% N2/5% CO2 for 4 hrs with compounds. The medium was exchanged for DMEM and supplemented with compounds, then neurons were reperfused for 18 hrs under normoxic conditions. The neuronal lysates were prepared for AEP, Caspase-3 and Cathepsin assays. Moreover, immunoblotting analysis was conducted with the neuronal lysates using anti-APP, anti-AEP antibodies.

CYP3A4 = CYP3A4 (Homo sapiens, UniProt P08684); experiment: CYP inhibition screening, CYP3A4-Midazolam; assay type: in vitro ADME
CYP3A4, sequence (P08684 whole entry): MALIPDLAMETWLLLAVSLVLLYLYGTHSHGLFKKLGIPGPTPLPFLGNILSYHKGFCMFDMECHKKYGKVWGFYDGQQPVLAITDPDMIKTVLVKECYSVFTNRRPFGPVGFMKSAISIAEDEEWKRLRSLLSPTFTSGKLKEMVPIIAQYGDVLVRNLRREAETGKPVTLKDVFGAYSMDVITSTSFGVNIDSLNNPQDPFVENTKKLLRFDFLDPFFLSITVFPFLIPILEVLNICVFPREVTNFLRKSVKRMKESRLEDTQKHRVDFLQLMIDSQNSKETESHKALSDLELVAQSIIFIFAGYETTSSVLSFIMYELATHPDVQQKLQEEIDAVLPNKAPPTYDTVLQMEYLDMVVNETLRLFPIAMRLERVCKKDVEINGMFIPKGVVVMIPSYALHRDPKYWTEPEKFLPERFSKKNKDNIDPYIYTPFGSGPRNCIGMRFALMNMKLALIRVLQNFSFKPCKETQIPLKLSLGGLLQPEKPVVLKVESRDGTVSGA

[2] = PAMPA
[3] = Liver microsomal stability, human; settings: human liver microsomes
AEP = experiment: Oxygen-glucose deprivation (OGD) in primary neurons, AEP activity; assay type: cell-based; settings: 0.1 μM or 1.0 μM compound
Protocol: as §1
Depriving cells of oxygen and glucose is a cellular model that is employed to trigger acidosis in cultured cells. The efficacy of the compounds in a cellular model of oxygen-glucose deprivation (OGD) was determined in an effort to mimic the effects of stroke in primary cultured neurons. As a result of depriving neurons of oxygen and glucose-containing medium, AEP activity was doubled (FIG. 7A, ‘DMSO-Norm’ compared to ‘DMSO-OGD’), while Caspase-3 and Cathepsin activities remained relatively unchanged. […]

Caco-2 monolayer = Caco-2 monolayer permeability screen; assay type: in vitro ADME; settings: Caco-2
Protocol: To explore the in vitro ADME profiles of the compounds, additional tests were conducted.

CYP2C19 = CYP2C19 (Homo sapiens, UniProt P33261); experiment: CYP inhibition screening, CYP2C19; assay type: in vitro ADME
CYP2C19, sequence (P33261 whole entry): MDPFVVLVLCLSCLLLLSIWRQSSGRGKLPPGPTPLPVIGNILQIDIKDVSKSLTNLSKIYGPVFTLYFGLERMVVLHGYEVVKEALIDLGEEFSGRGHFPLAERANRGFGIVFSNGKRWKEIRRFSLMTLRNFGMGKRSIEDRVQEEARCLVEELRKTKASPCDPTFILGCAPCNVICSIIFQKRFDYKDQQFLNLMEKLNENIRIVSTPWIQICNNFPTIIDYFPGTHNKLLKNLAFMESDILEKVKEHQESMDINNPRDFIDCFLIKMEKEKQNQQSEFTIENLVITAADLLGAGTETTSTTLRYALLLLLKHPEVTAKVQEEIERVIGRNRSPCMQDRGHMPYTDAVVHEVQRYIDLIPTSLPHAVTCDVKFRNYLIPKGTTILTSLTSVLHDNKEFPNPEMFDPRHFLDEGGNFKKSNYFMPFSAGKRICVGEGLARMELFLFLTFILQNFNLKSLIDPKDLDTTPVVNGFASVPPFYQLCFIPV

CYP3A = experiment: CYP inhibition screening, CYP3A-Testosterone; assay type: in vitro ADME
CYP2D6 = CYP2D6 (Homo sapiens, UniProt P10635); experiment: CYP inhibition screening, CYP2D6; assay type: in vitro ADME
CYP2D6, sequence (P10635 whole entry): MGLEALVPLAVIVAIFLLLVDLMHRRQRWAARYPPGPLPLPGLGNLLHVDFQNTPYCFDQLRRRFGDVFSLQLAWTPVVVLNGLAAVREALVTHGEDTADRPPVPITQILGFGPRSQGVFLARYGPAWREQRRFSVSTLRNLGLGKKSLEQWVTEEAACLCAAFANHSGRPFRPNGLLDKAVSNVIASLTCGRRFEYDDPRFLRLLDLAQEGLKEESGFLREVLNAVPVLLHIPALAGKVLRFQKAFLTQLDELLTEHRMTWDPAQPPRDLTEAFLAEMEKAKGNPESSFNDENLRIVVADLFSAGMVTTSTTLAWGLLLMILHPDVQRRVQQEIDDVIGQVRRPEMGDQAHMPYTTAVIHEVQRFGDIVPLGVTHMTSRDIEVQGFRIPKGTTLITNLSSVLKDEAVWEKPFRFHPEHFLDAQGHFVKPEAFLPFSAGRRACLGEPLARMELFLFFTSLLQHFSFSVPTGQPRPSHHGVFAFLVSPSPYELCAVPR

CYP2C9 = CYP2C9 (Homo sapiens, UniProt P11712); experiment: CYP inhibition screening, CYP2C9; assay type: in vitro ADME
CYP2C9, sequence (P11712 whole entry): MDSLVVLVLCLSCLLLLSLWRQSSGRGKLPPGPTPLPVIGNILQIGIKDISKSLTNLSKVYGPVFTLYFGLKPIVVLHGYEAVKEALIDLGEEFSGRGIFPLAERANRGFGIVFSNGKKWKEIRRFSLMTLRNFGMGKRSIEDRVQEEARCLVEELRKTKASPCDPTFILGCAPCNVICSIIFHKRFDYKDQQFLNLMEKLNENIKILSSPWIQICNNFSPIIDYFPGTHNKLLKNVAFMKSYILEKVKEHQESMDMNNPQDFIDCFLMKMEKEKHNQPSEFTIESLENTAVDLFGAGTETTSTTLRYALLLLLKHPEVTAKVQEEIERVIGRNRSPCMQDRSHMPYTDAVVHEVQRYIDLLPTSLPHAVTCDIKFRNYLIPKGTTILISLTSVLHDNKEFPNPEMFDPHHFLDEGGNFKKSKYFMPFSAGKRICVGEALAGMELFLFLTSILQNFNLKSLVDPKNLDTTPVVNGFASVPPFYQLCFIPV

CYP1A2 = target: T1, CYP1A2 (Homo sapiens, UniProt P05177); experiment: CYP inhibition screening, CYP1A2; assay type: in vitro ADME
T1 sequence (P05177 1-516): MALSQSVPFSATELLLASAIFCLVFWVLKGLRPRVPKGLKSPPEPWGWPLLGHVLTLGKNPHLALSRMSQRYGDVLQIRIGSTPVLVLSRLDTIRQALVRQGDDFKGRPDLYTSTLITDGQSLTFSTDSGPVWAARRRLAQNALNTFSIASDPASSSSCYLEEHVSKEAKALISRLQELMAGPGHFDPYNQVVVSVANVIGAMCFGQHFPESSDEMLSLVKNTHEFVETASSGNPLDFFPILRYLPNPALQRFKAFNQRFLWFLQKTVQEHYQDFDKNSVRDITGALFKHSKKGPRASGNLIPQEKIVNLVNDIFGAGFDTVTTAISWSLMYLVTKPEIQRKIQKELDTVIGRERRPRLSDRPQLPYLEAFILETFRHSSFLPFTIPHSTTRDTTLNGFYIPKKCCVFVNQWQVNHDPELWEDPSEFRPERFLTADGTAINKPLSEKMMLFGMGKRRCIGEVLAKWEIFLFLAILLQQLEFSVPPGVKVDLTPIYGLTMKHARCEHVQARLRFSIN

[4] = Liver microsomal stability, mouse; settings: mouse liver microsomes
Cathepsin-L = Cathepsin-L (Homo sapiens, UniProt P07711); experiment: Cathepsin-L enzymatic assay (specificity); assay type: biochemical
Cathepsin-L, sequence (P07711 114-333, species assumed): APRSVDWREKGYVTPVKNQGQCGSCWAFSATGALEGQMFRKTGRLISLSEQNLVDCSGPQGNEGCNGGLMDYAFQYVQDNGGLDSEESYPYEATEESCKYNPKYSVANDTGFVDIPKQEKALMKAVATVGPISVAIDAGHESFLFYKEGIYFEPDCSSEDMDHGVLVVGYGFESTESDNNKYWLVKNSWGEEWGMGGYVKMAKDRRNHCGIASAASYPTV
Protocol: (§2) Purified recombinant enzyme was incubated with various concentrations of inhibitor in appropriate assay buffers in the presence of increasing concentrations of inhibitor. The formation of fluorescent product was monitored in duplicate reactions and the data was fit to appropriate equations to calculate the IC50 values.
(§3) To identify small-molecule inhibitors of AEP, a high-throughput screen was designed in conjunction with the Emory Chemical Biology Discovery Center. The screen incorporated mouse kidney lysates to assay a 54,384 compound library. […] Additional structural analysis and grouping allowed the compounds to be sorted into 8 distinct backbone families. […] The specificity of the compounds was also determined using four major cysteine proteases (FIG. 2).
Cathepsin-L—100 nM enzyme was pre-incubated with inhibitor in assay buffer (100 mM Sodium Acetate pH 5.5, 1 mM EDTA) for 10 min at 37° C. The reaction was initiated upon addition of 25 μM substrate (D-Val-Leu-Lys-AMC (Bachem)).

Cathepsin-S = target: T2, Cathepsin-S (Homo sapiens, UniProt P25774); experiment: Cathepsin-S enzymatic assay (specificity); assay type: biochemical
T2 construct: purchased Athens Research and Technology
T2 sequence (P25774 115-331): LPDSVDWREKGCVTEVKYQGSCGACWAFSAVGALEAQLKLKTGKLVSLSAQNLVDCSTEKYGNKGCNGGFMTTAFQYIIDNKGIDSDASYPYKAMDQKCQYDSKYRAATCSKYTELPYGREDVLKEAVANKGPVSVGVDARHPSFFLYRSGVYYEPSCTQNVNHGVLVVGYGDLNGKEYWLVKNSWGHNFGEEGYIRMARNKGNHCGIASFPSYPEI
Protocol: as §2, §3
Cathepsin-S—100 nM enzyme was pre-incubated with inhibitor in assay buffer (100 mM NaH2PO4 pH 6.5, 100 mM NaCl) for 10 min at 37° C. The reaction was initiated upon addition of 25 μM substrate (Boc-Val-Leu-Lys-AMC (Bachem)).

Caspase-8 = target: T3, Caspase-8 (Homo sapiens, UniProt Q14790); experiment: Caspase-8 enzymatic assay (specificity); assay type: biochemical
T3 construct: purchased Millipore
T3 sequence (Q14790 217-374 limits assumed, species assumed): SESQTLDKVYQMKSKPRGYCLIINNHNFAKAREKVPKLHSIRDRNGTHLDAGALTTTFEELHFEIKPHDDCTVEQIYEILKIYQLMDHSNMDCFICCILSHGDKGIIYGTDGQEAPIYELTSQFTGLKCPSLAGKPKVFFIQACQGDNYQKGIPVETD
T3 sequence (Q14790 385-479 limits assumed, species assumed): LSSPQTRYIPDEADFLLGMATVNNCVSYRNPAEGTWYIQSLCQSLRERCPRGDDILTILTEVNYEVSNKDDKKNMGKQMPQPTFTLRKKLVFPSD
Protocol: as §2, §3
(§4) Caspase-3 and 8 —The enzyme was pre-incubated with inhibitor in assay buffer (100 mM HEPES pH 7.4, 0.1% CHAPS, 10% Sucrose) for 10 min at 37° C. The reaction was initiated upon addition of 25 μM substrate (Ac-Asp-Glu-Val-Asp-AMC (Bachem)).

HepG2 cells = experiment: COMET assay and micronucleus assay (genotoxicity); assay type: cell-based, human; settings: 50 μM, 24 hr
Protocol: A. MTT assay, in which 50 μM of each compound was incubated with HepG2 cells for 24 hrs. The compound-containing medium was removed and the cells were incubated with MTT solution for 3 hrs. Subsequently, the MTT solution was replaced with DMSO and the 0D570 was observed. B. LDH assay, in which 50 μM of each compound was incubated with primary culture neurons for 48 hrs. The media was then collected and incubated with LDH assay substrate for 30 min at room temp, in the dark. After the reactions were quenched, the 0D490 was observed. C. COMET assay results; 50 μM compound was incubated with HepG2 cells for 24 hrs. The cells were then added low-melt agarose and plated on microscope slides. The cells were lysed and the DNA was denatured and subject to electrophoresis. Finally, the DNA was stained with SYBR Green and 100 nuclei were counted for each sample, in each experiment; the experiment was performed in triplicate. […] Cells were fixed and nuclei were stained with DAPI and 1,000 cells were counted per sample; three independent experiments were performed.
In an effort to characterize the toxicity of the compounds, an MTT assay was performed using human hepatocellular carcinoma, HepG2 cells and primary culture neurons to monitor the cell viability. […] The cytotoxicity of the compounds in primary neuronal cultures was determined using an LDH assay to measure cytolysis (FIG. 4B). […]

Caspase-3 = target: T4, Caspase-3 (Homo sapiens, UniProt P42574); experiment: Caspase-3 enzymatic assay (specificity); assay type: biochemical
T4 construct: purchased Millipore
T4 sequence (P42574 29-175 limits assumed, species assumed): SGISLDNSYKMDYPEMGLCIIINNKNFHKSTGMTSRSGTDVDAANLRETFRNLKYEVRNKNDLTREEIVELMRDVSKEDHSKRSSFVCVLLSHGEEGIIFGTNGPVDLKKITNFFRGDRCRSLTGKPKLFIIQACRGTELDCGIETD
T4 sequence (P42574 176-277 limits assumed, species assumed): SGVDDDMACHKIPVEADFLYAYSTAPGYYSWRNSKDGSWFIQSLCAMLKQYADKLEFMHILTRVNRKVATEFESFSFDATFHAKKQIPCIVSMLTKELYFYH
Protocol: as §2, §3, §4

[5] = human, microsomes
[6] = mouse, microsomes

With Cc1cccc(NCc2ccc(O)c3ncccc23)c1C [Compound 12] the “dose dependence of APP cleavage after OGD” value [1] was “dose-dependent decrease”, the “cleavage of APP after OGD” value ([1]; 1 μM compound) was “blocked” and the “CYP inhibition, CYP3A4-Midazolam” value (CYP3A4; test concentration 3 μM) was −2.5%. For the same compound, the “CYP inhibition, CYP3A4-Midazolam” value (CYP3A4; test concentration 10 μM) was −2.5%, the Pe [2] was “<LLOQ” and the “Mean Remaining Parent (NADPH-free)” value [3] was 1%. For the same compound, the “Mean Remaining Parent (with NADPH)” value ([3]; 30 min of incubation) was 1%, the “AEP activity in OGD-treated neurons” value (AEP) was “slight decrease” and the “A -> B Papp” value (Caco-2 monolayer) was 1.4 10^−6 cm · s^−1. For the same compound, the “B -> A Papp” value (Caco-2 monolayer) was 3.7 10^−6 cm · s^−1, the RE (Caco-2 monolayer) was 2.7 and the “CYP inhibition, CYP2C19” value (CYP2C19; test concentration 3 μM) was 13.4%. The “CYP inhibition, CYP2C19” value (CYP2C19; test concentration 10 μM) was 29.4%, the “CYP inhibition, CYP3A-Testosterone” value (CYP3A; test concentration 3 μM) was 14.2% and the “CYP inhibition, CYP3A-Testosterone” value (CYP3A; test concentration 10 μM) was 27.6%. For the same compound, the “CYP inhibition, CYP2D6” value (CYP2D6; test concentration 3 μM) was 2.9%, the “CYP inhibition, CYP2D6” value (CYP2D6; test concentration 10 μM) was −2.6% and the “CYP inhibition, CYP2C9” value (CYP2C9; test concentration 3 μM) was 4.3%. For the same compound, the “CYP inhibition, CYP2C9” value (CYP2C9; test concentration 10 μM) was −2.7%, the “CYP inhibition, CYP1A2” value (CYP1A2; test concentration 3 μM) was 28.4% and the “CYP inhibition, CYP1A2” value (CYP1A2; test concentration 10 μM) was 44.5%. For the same compound, the “Mean Remaining Parent (NADPH-free)” value [4] was 0% and the “Mean Remaining Parent (with NADPH)” value [4] was 1%.

Work on CN(C)c1ccc(N2C(=O)C=CC2=O)cc1 [Compound 22] yielded an IC50 (Cathepsin-L) of over 100 µM, an IC50 (Cathepsin-S) of over 100 µM and an IC50 (Caspase-8) of over 100 µM. For the same compound, the “genotoxicity (COMET and micronucleus assays)” value (HepG2 cells) was “the only test compound to show genotoxicity” and the IC50 (Caspase-3) was over 100 µM.

For CC(=O)CC(c1ccccc1)c1c(O)c2ccccc2oc1=O (centres unmarked) [Warfarin], the “Mean Remaining Parent (with NADPH)” value ([5]; 0.5 h) was 96%, the “Mean Remaining Parent (NADPH-free)” value ([5]; 30 min) was 104% and the “Mean Remaining Parent (NADPH-free)” value [6] was 100%. The “Mean Remaining Parent (with NADPH)” value [6] was 91%.
